Measured values taken from paper PMC8956739, “A synthetic lipopeptide targeting top-priority multidrug-resistant Gram-negative pathogens” (Nature Communications, 2022).
Where two headings read alike, the source gives them in different places.

Legend:
[1] = system: MDR clinical isolates of A. baumannii (n = 210, 200 carbapenem-resistant); assay type: cell-based, Acinetobacter baumannii
Method in brief: (§1)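 MICs came from broth microdilution in cation-adjusted Mueller–Hinton broth against clinical isolates. For surfactant binding, P. aeruginosa ATCC 27853 was additionally tested with 10% Survanta® (v/v, 2.5 mg/mL phospholipids) added to the polymyxin-containing broth.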

[2] = system: A. baumannii AB5075; assay type: cell-based, Acinetobacter baumannii
Method in brief: as §1

[3] = system: A. baumannii ATCC 19606; assay type: cell-based, Acinetobacter baumannii
Method in brief: (§2)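 Read-out is the minimum inhibitory concentration, obtained by serially diluting compound in cation-adjusted Mueller–Hinton medium and exposing each isolate in microdilution format.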

[4] = system: A. baumannii FADDI-AB030; assay type: cell-based, Acinetobacter baumannii; details: carbapenem-resistant isolate
Method in brief: as §1

[5] = system: A. baumannii FADDI-AB034; assay type: cell-based, Acinetobacter baumannii; details: carbapenem-resistant isolate
Method in brief: as §1

[6] = system: P. aeruginosa ATCC 27853; assay type: cell-based, Pseudomonas aeruginosa
Method in brief: as §2

[7] = system: P. aeruginosa FADDI-PA025; assay type: cell-based, Pseudomonas aeruginosa; details: MDR clinical isolate
Method in brief: as §1

[8] = system: P. aeruginosa FADDI-PA038; assay type: cell-based, Pseudomonas aeruginosa; details: carbapenem-resistant isolate
Method in brief: as §1

[9] = system: MDR clinical isolates of P. aeruginosa (n = 213, 55 carbapenem-resistant); assay type: cell-based, Pseudomonas aeruginosa
Method in brief: as §1

Substance Polymyxin B [reference compound] has an MIC50 ([1]; A. baumannii n = 210) of 1 mg/L, an MIC90 ([1]; A. baumannii n = 210) of 4 mg/L and a Number of isolates ([1]; isolates with MIC 0.05 µg/mL) of 0. It also gave a Number of isolates ([1]; isolates with MIC 0.125 µg/mL) of 0, a Number of isolates ([1]; isolates with MIC 0.25 µg/mL) of 0 and a Number of isolates ([1]; isolates with MIC 0.5 µg/mL) of 24. For the same substance, the Number of isolates ([1]; isolates with MIC 1 µg/mL) was 120, the Number of isolates ([1]; isolates with MIC 2 µg/mL) was 47 and the Number of isolates ([1]; isolates with MIC 4 µg/mL) was 11. The Number of isolates ([1]; isolates with MIC 8 µg/mL) was 5, the Number of isolates ([1]; isolates with MIC 16 µg/mL) was 2 and the Number of isolates ([1]; isolates with MIC 32 µg/mL) was 0. For the same substance, the Number of isolates ([1]; isolates with MIC 64 µg/mL) was 0, the Number of isolates ([1]; isolates with MIC >64 µg/mL) was 0 and the “MIC A. baumannii AB5075” value [2] was 0.5 mg/L. The “MIC A. baumannii ATCC 19606” value [3] was 1 mg/L, the “MIC A. baumannii FADDI-AB030” value [4] was 0.25 mg/L and the “MIC A. baumannii FADDI-AB034” value [5] was 0.5 mg/L. For the same substance, the “MIC P. aeruginosa ATCC 27853” value [6] was 0.5 mg/L, the “loss of antibacterial activity due to binding to lung surfactant” value ([6]; 10% Survanta) was 87.5% and the “increase of MIC in the presence of lung surfactant” value ([6]; 10% Survanta vs none) was 8 fold. The MIC, 10% Survanta ([6]; P. aeruginosa ATCC 27853, 10% Survanta) was 8 mg/L, the MIC, No Survanta ([6]; P. aeruginosa ATCC 27853, no surfactant) was 1 mg/L and the “MIC P. aeruginosa FADDI-PA025” value [7] was 2 mg/L. The “MIC P. aeruginosa FADDI-PA038” value [8] was 0.5 mg/L, the “MIC P. aeruginosa FADDI-PA038” value ([8]; listed as PMB) was 1 mg/L and the MIC50 ([9]; P. aeruginosa n = 213) was 1 mg/L. It also gave an MIC90 ([9]; P. aeruginosa n = 213) of 2 mg/L, a Number of isolates ([9]; isolates with MIC 0.05 μg/mL (so in the source)) of 0 and a Number of isolates ([9]; isolates with MIC 0.125 μg/mL (so in the source)) of 0. The Number of isolates ([9]; isolates with MIC 0.25 μg/mL (so in the source)) was 1, the Number of isolates ([9]; isolates with MIC 0.5 μg/mL (so in the source)) was 9 and the Number of isolates ([9]; isolates with MIC 1 μg/mL (so in the source)) was 99. It also gave a Number of isolates ([9]; isolates with MIC 2 μg/mL (so in the source)) of 95, a Number of isolates ([9]; isolates with MIC 4 μg/mL (so in the source)) of 7 and a Number of isolates ([9]; isolates with MIC 8 μg/mL (so in the source)) of 0. The Number of isolates ([9]; isolates with MIC 16 μg/mL (so in the source)) was 2, the Number of isolates ([9]; isolates with MIC 32 μg/mL (so in the source)) was 0 and the Number of isolates ([9]; isolates with MIC 64 μg/mL (so in the source)) was 0. For the same substance, the Number of isolates ([9]; isolates with MIC >64 μg/mL (so in the source)) was 0.
